Source: US20060183889A1, “Alkyl phosphine detergent products and extraction processes” (priority 2005, published 2006)
Peptide text beside a SMILES is read from it.

What was measured:
[1] = tested on: uninduced BL21 Star cells; assay: Screening of detergents: lysis of uninduced cell cultures analysed by PAGE; assay type: cell-based, E. coli; conditions: for lysis of uninduced BL21 Star cells by PAGE (FIG. 1) / lysis performance / lysis capabilities by PAGE (FIG. 2): 1% detergent in 50 mM phosphate; for lysis of uninduced BL21 Star cells by PAGE (FIG. 1) / lysis performance: 300 mM NaCl pH 7; for lysis performance: compared with BugBuster; for lysis of bacterial cells: 1% detergent in 50 mM phosphate pH 7, uninduced cell cultures, compared with BugBuster and B-Per; for lysis capabilities by PAGE (FIG. 2): 300 mM NaCl pH=7, alkyl chain length 9-11
Procedure: (§1) Cultures were grown to OD600=1.2-1.5 and then collected for lysis. One ml of culture was subjected to centrifugation (10,000×g) and lysed in 75 to 100 μl of each lysis buffer depending on optical density (OD). In some samples 10 μl of 1:100 dilution of BENZONASE® nuclease (Benzon Pharma A/S) and 10 μl of 0.5 mg/ml Lysozyme were added. Samples were allowed to incubate at room temperature for approximately 10 minutes, then spun down at 10,000×g. Supernatant was pipetted and used for subsequent activity assays and SDS-PAGE analysis. For BL21 (DE3) pLysS cultures, 2 independent lysates of each culture with and without lysozyme were prepared and tested.
(§2) For gel electrophoresis, 15 μL of each lysate was incubated with 5 μl of 4× LDS Sample buffer and 2 μl of NuPage Reducing reagent in a 70° C. heat block for 10 minutes. 5 μl of the samples were run on 4-12% NuPAGE gels (Invitrogen cat # NP0321 or NP0323) with MES SDS running buffer. SDS-PAGE gels were stained with SimplyBlue Safe Stain (Invitrogen cat# LC6065).
Screening of a wide range of detergents was performed by evaluating the lysis of uninduced cell cultures. For the first round of screening, detergents from different chemical groups were evaluated starting with some well-known detergents such as Triton X-100, Elugent, NP-7, NP-40. The lysis buffers were prepared at 1% detergent concentration in 50 mM phosphate pH 7. The detergents were compared with known lysis procedures using BugBuster® lysis reagent (Novagen), B-Per™ protein extraction reagent (Pierce), Relay 96 Protein Screen (Invitrogen), and sonication.
Other types of detergents also screened were ASB-C8 and three other synthesized sulfobetaine detergents: SB-A, SB-B, and SB-C, as well as APO-8, APO-10, APO-12 and N-dodecanoyl sucrose as 1% detergent solutions in 50 mM phosphate, 300 mM NaCl pH 7) using BL21 Star cells. […] Lane 1 is a Mark 12 Molecular Weight Standard; lane 2 is a 1% SB-A lysis solution; lane 3 is a 1% ASB-C8 lysis solution; lane 4 is a 1% SB-B lysis solution; lane 5 is a 1% SB-C lysis solution; lane 6 is a 1% APO-8 lysis solution; lane 7 is a 1% APO-10 lysis solution; lane 8 is a 1% APO-12 lysis solution; lane 9 is a 1% N-Dodecanoyl Sucrose lysis solution and lane 10 is BugBuster® HT lysis reagent. […] It is likely that the length of the alkyl chain is critical for the lysis ability of the detergent. Therefore, another round of testing was performed with detergents of the same type with alkyl chains one […] smaller and bigger than APO-10. […] One percent detergent formulations were prepared in 50 mM phosphate, 300 mM NaCl pH=7. In FIG. 2, Lane 1 is a Mark 12 Molecular Weight Standard; lane 2 is BugBuster® HT; lane 3 is a 1% APO-9 lysis solution; lane 4 is a 1% APO-10 lysis solution and lane 5 is a 1% APO-11 lysis solution.

[2] = cited from earlier work
[3] = tested on: BL-21-AI, BL-21-Star, BL-21 DE3; assay: Side by side comparison of alkylglucoside and alkylphosphine detergents as lysis reagents; assay type: cell-based, E. coli; conditions: several cell types: BL-21-AI
Procedure: as §1, §2
Side by side comparison testing was performed of the alkylglucoside and alkylphosphine detergents with several different cell types: BL-21-AI, BL-21-Star, BL-21 DE3. In this comparison testing BugBuster® HT lysis reagent (Novagen), B-Per™ protein extraction reagent (Pierce), n-octyl-β-D-glucopyranoside, n-nonyl-β-D-glucopyranoside, and n-octyl-β-D-thioglucopyranoside, APO-9 and APO-10 were utilized. […] Further optimization and testing was concentrated on the use of APO detergents by themselves and in combination with other detergents.

[4] = tested on: BL21 Star cultures; assay: MBP extraction evaluated qualitatively by SDS PAGE; assay type: cell-based, E. coli; conditions: qualitative
Procedure: (§3) E. coli strain BL21 cells were transformed with plasmids expressing β-galactosidase, green fluorescent protein (GFP) or maltose binding protein (MBP) as follows. BL21-AI were transformed with pET 100 expressing n-terminal 6×His tagged GFP or n-terminally 6×His tagged LacZ (β-galactosidase). The cells were grown at 37° C. to OD600=0.4-0.5 and then induced with 1 mM IPTG and 0.1% arabinose. The expression was performed for 2-4 hours at 37° C. BL21 Star cells were transformed with plasmid expressing MBP. The cells were grown at 37° C. to OD600=0.4-0.5 and then induced with 1 mM IPTG. Protein expression was performed at 30° C. for 2-4 hours. BL-21(DE3) and BL-21(DE3)pLysS cells were transformed with vector expressing N-terminally 6×His tagged LacZ (β-galactosidase) (pET 100 lacZ-IVGN cat# K100-01), N-terminal Lumio tag (Cys-Cys-Pro-Gly-Cys-Cys) and 6×His tagged Lac-Z (pET 160 LacZ), and N-terminal Lumio tag (Cys-Cys-Pro-Gly-Cys-Cys) and 6×His tagged GFP (pET 160 GFP). […]
Following preliminary screening, more detailed testing was performed using GFP, β-galactosidase and MBP expressed in E. coli. […] The activity of the β-galactosidase was measured using the β-galactosidase activity kit (Invitrogen) as described above. The GFP activity (native state) was tested by measuring the fluorescence of the protein as described above. MBP extraction was evaluated qualitatively by SDS PAGE gel electrophoresis.

[5] = tested on: BL21-AI cells expressing GFP; assay: Lysis of cells expressing GFP, fluorescence of lysate; assay type: cell-based, E. coli; conditions: 0.5% in 50 mM Tris pH=7; normalized to BugBuster; average of multiple treatments
Procedure: as §3, with “hours.” for “hours. BL-21(DE3) and BL-21(DE3)pLysS cells were transformed with vector expressing N-terminally 6×His tagged LacZ (β-galactosidase) (pET 100 lacZ-IVGN cat# K100-01), N-terminal Lumio tag (Cys-Cys-Pro-Gly-Cys-Cys) and 6×His tagged Lac-Z (pET 160 LacZ), and N-terminal Lumio tag (Cys-Cys-Pro-Gly-Cys-Cys) and 6×His tagged GFP (pET 160 GFP).”
(§4) GFP activity was determined by reading fluorescence (Excitation at 395/Emission […]) of lysates (diluted 1:20 or 1:40 in 50 mM Phosphate pH 7). The raw data was recorded. LacZ activity was determined by using the β-galactosidase assay kit (IVGN cat # K1455-01). The lysate samples were diluted 1:100 and then analyzed as described in the kit manual. Results were obtained using OD420 readings in the following equation: nmoles of ONPG hydrolyzed/μL lysate=(OD420background) (1.92×10^5 nl)(dilution factor=100) (4500 nl/nmoles-cm)×(1 cm) Data was normalized to the reading received from a control sample prepared with BugBuster® or BugBuster® HT (Novagen) lysis reagents. […]

[6] = tested on: BL21- AI cells expressing β-galactosidase; assay: Lysis of cells expressing β-galactosidase, β-galactosidase activity of lysate; assay type: cell-based, E. coli; conditions: 0.5% APO detergent formulation; lysozyme in the lysis buffer
Procedure: as §3, with “hours.” for “hours. BL-21(DE3) and BL-21(DE3)pLysS cells were transformed with vector expressing N-terminally 6×His tagged LacZ (β-galactosidase) (pET 100 lacZ-IVGN cat# K100-01), N-terminal Lumio tag (Cys-Cys-Pro-Gly-Cys-Cys) and 6×His tagged Lac-Z (pET 160 LacZ), and N-terminal Lumio tag (Cys-Cys-Pro-Gly-Cys-Cys) and 6×His tagged GFP (pET 160 GFP).”
as §4

## CCCCCCCCCCCCP(C)(C)=O [APO-12, Dimethyldodecylphosphine oxide]
[1]
  lysis of uninduced BL21 Star cells by PAGE (FIG. 1): did not lyse the cells efficiently

## Cl.NCC(N)=O [Glycinamide HCL]
[2]
  pKa(4° C.): 8.66
  pKa(20° C.): 8.20
  pKa(37° C.): 7.71
  Temperature Coefficient (↑pKa/° C.): 0.029 ↑pKa/° C.

## O=C(O)CN(CCO)CCO [Bicine]
[2]
  pKa(4° C.): 8.64
  pKa(37° C.): 8.04
  Temperature Coefficient (↑pKa/° C.): 0.018 ↑pKa/° C.

## CCCCCCCCS[C@@H]1O[C@H](CO)[C@@H](O)[C@H](O)[C@H]1O [n-octyl-β-D-thioglucopyranoside]
[1]
  lysis performance: good lysis performance
[3]
  performance as lysis reagent: performed well

## CCCCCCCCCO[C@@H]1O[C@H](CO)[C@@H](O)[C@H](O)[C@H]1O [n-nonyl-β-D-glucopyranoside]
[1]
  lysis performance: good lysis performance
[3]
  performance as lysis reagent: performed well

## CCCCCCCCO[C@@H]1O[C@H](CO)[C@@H](O)[C@H](O)[C@H]1O [n-octyl-β-D-glucopyranoside]
[4]
  MBP extraction: comparable
[1]
  lysis performance: good lysis performance
[3]
  performance as lysis reagent: performed well

## NCC(=O)NCC(=O)O [Glycylglycine] (H-Gly-Gly-OH)
[2]
  pKa(4° C.): 8.85
  pKa(37° C.): 7.92
  Temperature Coefficient (↑pKa/° C.): 0.028 ↑pKa/° C.

## O=S(=O)(O)CCN(CCO)CCO [BES]
[2]
  pKa(4° C.): 7.41
  pKa(20° C.): 7.5
  pKa(37° C.): 6.88
  Temperature Coefficient (↑pKa/° C.): 0.016 ↑pKa/° C.

## Triton X-100
[1]
  lysis of bacterial cells: not be very efficient

## O=S(=O)(O)CCNC(CO)(CO)CO [TES]
[2]
  pKa(4° C.): 7.82
  pKa(20° C.): 7.50
  pKa(37° C.): 7.16
  Temperature Coefficient (↑pKa/° C.): 0.020 ↑pKa/° C.

## CCCCCCCCCP(C)(C)=O [APO-9, Dimethylnonylphosphine oxide]
[1]
  lysis capabilities by PAGE (FIG. 2): optimal lysis capabilities
[3]
  performance as lysis reagent: performed well

## O=S(=O)(O)CCCN1CCN(CCO)CC1 [HEPPS]
[2]
  pKa(4° C.): 8.18
  pKa(20° C.): 8.00
  pKa(37° C.): 7.81
  Temperature Coefficient (↑pKa/° C.): 0.011 ↑pKa/° C.

## N-dodecanoyl sucrose
[1]
  lysis of uninduced BL21 Star cells by PAGE (FIG. 1): did not lyse the cells efficiently

## CCCCCCCCCCCCO[C@@H]1O[C@H](CO)[C@@H](O[C@H]2O[C@H](CO)[C@@H](O)[C@H](O)[C@H]2O)[C@H](O)[C@H]1O [n-dodecyl-β-D-maldoside]
[1]
  lysis performance: good lysis performance

## CCCCCCCCP(C)(C)=O [APO-8, Dimethyloctylphosphine oxide]
[1]
  lysis of uninduced BL21 Star cells by PAGE (FIG. 1): did not lyse the cells efficiently

## O=C(O)CNC(CO)(CO)CO [TRICINE]
[2]
  pKa(4° C.): 8.49
  pKa(37° C.): 7.79
  Temperature Coefficient (↑pKa/° C.): 0.021 ↑pKa/° C.

## NP-40
[1]
  lysis of bacterial cells: not be very efficient

## CCCCCCCCCCP(C)(C)=O [APO-10, Dimethyldecylphosphine oxide]
[5]
  difference of GFP fluorescence result from the BugBuster reagent (FIG. 3): ≤ 7%
[4]
  MBP extraction: similarly or slightly better
[1]
  lysis of uninduced BL21 Star cells by PAGE (FIG. 1): performed very well
  lysis capabilities by PAGE (FIG. 2): optimal lysis capabilities
[3]
  performance as lysis reagent: performed well
[6]
  difference of β-galactosidase extraction performance from the BPER-2 reagent (FIG. 4): ≤ 5%

## NC(=O)CN(CC(=O)O)CC(=O)O [ADA]
[2]
  pKa(4° C.): 6.80
  pKa(20° C.): 6.60
  pKa(37° C.): 6.43
  Temperature Coefficient (↑pKa/° C.): 0.011 ↑pKa/° C.
